The target of assay [1] is T1, Beta-secretase 1 (Homo sapiens, UniProt P56817). The assay is described as follows: Binding affinity to BACE1 by NMR-based differential chemical shift perturbation method.
The target of assay [2] is T1, Beta-secretase 1. The assay is described as follows: Binding affinity to BACE1 by surface plasmon resonance method.

From ChEMBL document CHEMBL2010697, “Fragment based drug discovery: practical implementation based on ¹⁹F NMR spectroscopy” (J Med Chem, 2012) come the findings set out here.

T1 sequence (P56817 whole entry): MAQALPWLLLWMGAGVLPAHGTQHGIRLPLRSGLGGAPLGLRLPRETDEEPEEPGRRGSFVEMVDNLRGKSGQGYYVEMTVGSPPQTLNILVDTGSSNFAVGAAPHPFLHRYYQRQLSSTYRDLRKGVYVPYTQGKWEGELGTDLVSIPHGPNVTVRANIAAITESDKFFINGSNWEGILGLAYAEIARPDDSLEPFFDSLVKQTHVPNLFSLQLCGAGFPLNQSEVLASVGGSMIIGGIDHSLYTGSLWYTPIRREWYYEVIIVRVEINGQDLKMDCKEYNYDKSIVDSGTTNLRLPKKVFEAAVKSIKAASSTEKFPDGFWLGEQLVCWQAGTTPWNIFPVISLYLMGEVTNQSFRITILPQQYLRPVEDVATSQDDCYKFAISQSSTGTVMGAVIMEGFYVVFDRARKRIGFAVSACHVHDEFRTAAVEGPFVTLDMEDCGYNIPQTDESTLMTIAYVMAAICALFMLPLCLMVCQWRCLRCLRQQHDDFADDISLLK

In general, Kd refers to the constant that tells how readily two partners part at equilibrium. As for `Nc1ccc2cc(F)ccc2n1`, the values for the Kd at Beta-secretase 1 [1] and at Beta-secretase 1 [2] were 1000 µM and 1280 µM, respectively. The like results for `Fc1cccc(C2NCCc3sccc32)c1` (racemic) were, in that order, over 1000 µM and over 2000 µM. For `NC1=Nc2ccccc2Sc2cccc(F)c21` the same measures were 400 µM and 325 µM.

As for `Nc1ccc2cc(-c3ccccc3C(F)(F)F)ccc2n1`, the Kd on Beta-secretase 1 [1] and on Beta-secretase 1 [2] was 200 µM throughout.

On to `Fc1cccc(Cl)c1CN1CCNCC1`, for which the Kd on Beta-secretase 1 [1] is over 1000 µM; at Beta-secretase 1 [2] it was over 2000 µM. On Beta-secretase 1 [2], `Nc1ccc2cc(C(F)(F)F)ccc2n1` showed a Kd of 3900 µM. For `O=C(NC1CCCCC1)C(F)(F)F`, the Kd on Beta-secretase 1 [1] is over 1000 µM. For `N=C(N)SCc1c(F)cccc1Cl`, the Kd is 350 µM at Beta-secretase 1 [1] and 300 µM on Beta-secretase 1 [2]. For the compound `Cc1ccc2nc(N)ccc2c1`, the Kd at Beta-secretase 1 [2] came out at 1600 µM.

With `Nc1ccc2cc(-c3ccccc3F)ccc2n1`, binding at Beta-secretase 1 [2] was characterised by a dissociation constant (Kd) of 39 µM. The compound `Nc1cc(C(F)(F)F)c2ccccc2n1` gave a Kd at Beta-secretase 1 [2] of 2900 µM. In turn, `Cc1cc(N)nc2ccccc12` came in with a Kd at Beta-secretase 1 [2] of 1300 µM.
